Assay results reported in article PMC7902834, “A rotary mechanism for allostery in bacterial hybrid malic enzymes” (Nature Communications, 2021).
Each block holds one compound with its values, some of them ahead of it.

Assays:
Type in all cases: biochemical
[1] = biological target: T1, MaeB (hybrid malic enzyme, Bd1833/MaeB) (Bdellovibrio bacteriovorus, UniProt Q6MM14+Q6MM15); experiment: steady-state kinetics of reverse reductive carboxylation; parameters: gene mdh; full-length MaeB (Met1–Lys780)
Target sequence in this assay (Q6MM15 entry or part of it): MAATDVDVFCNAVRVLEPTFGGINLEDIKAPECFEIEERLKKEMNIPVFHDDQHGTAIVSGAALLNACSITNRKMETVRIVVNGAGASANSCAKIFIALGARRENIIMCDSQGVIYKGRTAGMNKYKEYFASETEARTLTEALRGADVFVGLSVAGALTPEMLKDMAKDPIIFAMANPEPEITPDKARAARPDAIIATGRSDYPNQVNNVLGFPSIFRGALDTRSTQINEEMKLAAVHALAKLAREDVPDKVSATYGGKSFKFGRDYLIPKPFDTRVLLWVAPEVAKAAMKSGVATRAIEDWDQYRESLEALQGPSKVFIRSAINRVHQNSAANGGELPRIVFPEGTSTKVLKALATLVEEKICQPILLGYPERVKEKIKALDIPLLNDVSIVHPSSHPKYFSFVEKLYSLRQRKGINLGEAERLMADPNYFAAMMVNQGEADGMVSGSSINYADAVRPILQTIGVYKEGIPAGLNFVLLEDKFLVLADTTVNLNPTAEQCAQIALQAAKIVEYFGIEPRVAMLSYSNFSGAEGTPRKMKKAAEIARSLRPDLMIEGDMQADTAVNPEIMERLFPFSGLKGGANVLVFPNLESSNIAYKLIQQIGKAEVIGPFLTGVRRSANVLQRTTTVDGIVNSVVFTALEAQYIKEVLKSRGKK
Target sequence in this assay (Q6MM14 entry or part of it): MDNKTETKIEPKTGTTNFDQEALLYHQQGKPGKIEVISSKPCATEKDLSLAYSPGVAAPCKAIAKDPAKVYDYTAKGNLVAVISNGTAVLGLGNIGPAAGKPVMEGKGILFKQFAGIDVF

[2] = biological target: T1, MaeB (hybrid malic enzyme, Bd1833/MaeB); experiment: NADPH absorbance assay ([…] nm), single concentration […]; parameters: gene mdh; full-length MaeB (Met1–Lys780); settings: read-out: % of uninhibited activity at 2 mM
Target sequence in this assay (Q6MM15 entry or part of it): as the sequence (Q6MM15 entry or part of it) above
Target sequence in this assay (Q6MM14 entry or part of it): as the sequence (Q6MM14 entry or part of it) above

[3] = biological target: T1, MaeB (hybrid malic enzyme, Bd1833/MaeB); experiment: steady-state kinetics, NADPH absorbance; parameters: gene mdh; full-length MaeB (Met1–Lys780)
Target sequence in this assay (Q6MM15 entry or part of it): as the sequence (Q6MM15 entry or part of it) above
Target sequence in this assay (Q6MM14 entry or part of it): as the sequence (Q6MM14 entry or part of it) above

[4] = biological target: T2, MaeB (hybrid malic enzyme, Bd1833/MaeB) (Bdellovibrio bacteriovorus, UniProt Q6MM15); experiment: X-ray crystal structures of PTA domain and full-length; HPLC of co-purified ligand; enzyme inhibition kinetics (IC50 […]); parameters: gene mdh; full-length MaeB (Met1–Lys780) kinetics and crystal structure (6ZNG)
[5] = biological target: T2, MaeB (hybrid malic enzyme, Bd1833/MaeB); experiment: NADPH absorbance assay ([…] nm), dose response; parameters: gene mdh; full-length MaeB (Met1–Lys780), ligand-free MaeBapo
[6] = biological target: T1, MaeB (hybrid malic enzyme, Bd1833/MaeB); experiment: NADPH absorbance assay ([…] nm), single concentration […] ([…] activity left); parameters: gene mdh; full-length MaeB and MaeBME (Met1–Ala434)
Target sequence in this assay (Q6MM14 entry or part of it): as above
Target sequence in this assay (Q6MM15 entry or part of it): as the sequence (Q6MM15 entry or part of it) above

T2 sequence (Q6MM14 entry or part of it): as the sequence (Q6MM14 entry or part of it) above
T2 sequence (Q6MM15 entry or part of it): as the sequence (Q6MM15 entry or part of it) above

SMILES: CC(=O)C(=O)O [pyruvate]
steady-state kinetics of reverse reductive carboxylation [1]: 30 M⁻¹ s⁻¹

SMILES: CC(C)(COP(=O)(O)OP(=O)(O)OC[C@H]1O[C@@H](n2cnc3c(N)ncnc32)[C@H](O)[C@@H]1OP(=O)(O)O)[C@@H](O)C(=O)NCCC(=O)NCCS [CoA]
IC50 [5]: 20.2 µM

SMILES: O=C(O)CC(=O)C(=O)O [oxaloacetate]
NADPH absorbance assay (340 nm), single concentration 2 mM (<10% activity left) [6]: oxaloacetate inhibited both MaeB and MaeBME activities, suggesting this effector interacts directly with the ME domain

Results, then the compound that gave them:

activity at 2000 µM [2]: ~50%
SMILES: CC(=O)OP(=O)(O)O [acetyl phosphate]

steady-state kinetics, NADPH absorbance [3]: 10000 M⁻¹ s⁻¹
SMILES: O=C(O)C[C@H](O)C(=O)O [L-malate]

Ki [4]: 0.7 µM
SMILES: CC(=O)SCCNC(=O)CCNC(=O)[C@H](O)C(C)(C)COP(=O)(O)OP(=O)(O)OC[C@H]1O[C@@H](n2cnc3c(N)ncnc32)[C@H](O)[C@@H]1OP(=O)(O)O [acetyl-CoA]
